Holding throughout (type): functional, cell-based
One assay deals with HepG2. Briefly: Growth inhibition of human HepG2 cells after 24 hrs by MTT assay. Particulars: HepG2, 24 h.
Another assay has as its system MDA-MB-231. Briefly: Growth inhibition of human MDA-MB-231 cells after 24 hrs by MTT assay. The note with it: MDA-MB-231, 24 h. A general note: Formazan colour is commonly taken as a measure of viable cells.
The next assay has as its system MCF7. Briefly: Growth inhibition of human MCF7 cells after 24 hrs by MTT assay. The note with it: MCF7, 24 h.

SMILES strings stand for the structures.

Usually IC50 stands for the midpoint of a concentration-inhibition curve. Low readings indicate inhibition by little substance, high ones a need for much substance.

For `O=c1c2ccc(O)cc2oc2cc(OCCCCCO[N+](=O)[O-])cc(O)c12`, the results for the IC50 with HepG2, in the assay on MDA-MB-231 and in the assay on MCF7 were 62.3 µM, 41.4 µM and 112 µM, respectively.
For `O=c1c2cc(Br)ccc2oc2cc(OCCCCCCCO[N+](=O)[O-])cc(O)c12`, in that order: 7.28 µM, 9.27 µM and 35.9 µM.
For `COc1ccc2oc3cc(OCCCCCO[N+](=O)[O-])cc(O)c3c(=O)c2c1`, in that order: 33.3 µM, 9.29 µM and 53.4 µM.
For `COc1cc2oc3cc(OCCCCCCCO[N+](=O)[O-])cc(O)c3c(=O)c2cc1OC`, in that order: 13.2 µM, 67.6 µM and 163 µM.
Turning to `O=c1c2ccccc2oc2cc(OCCCCCCCO[N+](=O)[O-])cc(O)c12`, the IC50 with HepG2 is 5.24 µM; in the assay on MDA-MB-231 it was 43.5 µM; with MCF7 it was 153 µM.
The corresponding values for `COc1cccc2oc3cc(OCCCO[N+](=O)[O-])cc(O)c3c(=O)c12` are 13.6 µM, 9.68 µM and 102 µM.
For `O=[N+]([O-])OCCCO` [ABRUCOMSTAT], in that order: 111 µM, more than 200 µM and more than 200 µM.
Consider `COc1cccc2oc3cc(OCCCCCO)cc(O)c3c(=O)c12`, for which the concentration for half-maximal inhibition (IC50) was 23.7 µM in the assay on HepG2, 41.1 µM in the assay with MDA-MB-231 and more than 200 µM with MCF7.
The corresponding values for `O=c1c2ccccc2oc2cc(OCCCO[N+](=O)[O-])cc(O)c12` are 12.3 µM, 83.9 µM and more than 200 µM.
Turning to `COc1ccc2oc3cc(OCCCCCCO[N+](=O)[O-])cc(O)c3c(=O)c2c1`, the IC50 was 13.6 µM with HepG2, 3.05 µM in the assay on MDA-MB-231 and 41.1 µM with MCF7.
The corresponding values for `COc1ccc2oc3cc(OCCCCO[N+](=O)[O-])cc(O)c3c(=O)c2c1` are 52.1 µM, 22.3 µM and 83.2 µM.
For `COc1ccc2oc3cc(OCCCCCCCO[N+](=O)[O-])cc(O)c3c(=O)c2c1`, in that order: 42.1 µM, 16.2 µM and 71.2 µM.
On to `O=c1c2cc(Br)ccc2oc2cc(OCCCO[N+](=O)[O-])cc(O)c12`, for which the IC50 with HepG2 was 14 µM; in the assay on MDA-MB-231, 43.6 µM; in the assay with MCF7 it was more than 200 µM.
For `O=c1c2cc(Cl)ccc2oc2cc(OCCCCO[N+](=O)[O-])cc(O)c12`, in that order: 10.1 µM, 11.2 µM and 42.9 µM.
On to `O=c1c2cc(Cl)ccc2oc2cc(OCCCCCCCO[N+](=O)[O-])cc(O)c12`, for which the IC50 in the assay on HepG2 was 8.13 µM; with MDA-MB-231 it was 10.2 µM; with MCF7, 30.8 µM.
For `O=c1c2ccccc2oc2cc(OCCCCO[N+](=O)[O-])cc(O)c12`, in that order: 6.55 µM, 56.6 µM and more than 200 µM.
The corresponding values for `COc1cccc2oc3cc(OCCCCO[N+](=O)[O-])cc(O)c3c(=O)c12` are 10.2 µM, 6.25 µM and 63 µM.
For `COc1cccc2oc3cc(OCCCCCCO[N+](=O)[O-])cc(O)c3c(=O)c12`, in that order: 0.61 µM, 0.45 µM and 31 µM.
Regarding `COc1ccc2oc3cc(O)cc(O)c3c(=O)c2c1`, the IC50 in the assay on HepG2 is 93.2 µM; in the assay with MDA-MB-231 it was more than 200 µM; with MCF7 it was more than 200 µM.
Take `COc1cccc2oc3cc(OCCO[N+](=O)[O-])cc(O)c3c(=O)c12`: the IC50 in the assay with HepG2 worked out at 21.5 µM; in the assay on MDA-MB-231, 11.2 µM; in the assay with MCF7, 104 µM.
For `COc1cc2oc3cc(OCCO[N+](=O)[O-])cc(O)c3c(=O)c2cc1OC`, the IC50 was 91.7 µM in the assay with HepG2, 130 µM with MDA-MB-231 and more than 200 µM with MCF7.
For `Cc1ccc2c(=O)c3c(O)cc(OCCCCCCO[N+](=O)[O-])cc3oc2c1`, in that order: 1.28 µM, 10.3 µM and 35.1 µM.
The corresponding values for `COc1cc2oc3cc(OCCCCO[N+](=O)[O-])cc(O)c3c(=O)c2cc1OC` are 21.2 µM, 87.4 µM and more than 200 µM.
On to `COc1cc2oc3cc(OCCCCCCO[N+](=O)[O-])cc(O)c3c(=O)c2cc1OC`, for which the IC50 came to 1.83 µM in the assay with HepG2, 19.8 µM in the assay with MDA-MB-231 and 98.2 µM with MCF7.
In the case of `O=c1c2cc(O)ccc2oc2cc(OCCCCCO[N+](=O)[O-])cc(O)c12`, the IC50 in the assay on HepG2 came out at 9.91 µM; with MDA-MB-231, 44.6 µM; with MCF7, 91.2 µM.
As for `O=c1c2cc(O)ccc2oc2cc(O)cc(O)c12`, the IC50 with HepG2, with MDA-MB-231 and in the assay on MCF7 was more than 200 µM throughout.
Turning to `COc1cc2oc3cc(OCCCCCO[N+](=O)[O-])cc(O)c3c(=O)c2cc1OC`, the IC50 in the assay on HepG2 was 6.35 µM; with MDA-MB-231 it was 45.6 µM; in the assay with MCF7 it was more than 200 µM.
For the molecule `O=c1c2cc(O)ccc2oc2cc(OCCCCCCO[N+](=O)[O-])cc(O)c12`, the IC50 was found to be 11.4 µM with HepG2, 18.5 µM in the assay on MDA-MB-231 and 53.7 µM in the assay on MCF7.
With `O=c1c2ccccc2oc2cc(OCCCCCO[N+](=O)[O-])cc(O)c12`, the values for the IC50 in the assay with HepG2, in the assay with MDA-MB-231 and in the assay with MCF7 were 4.08 µM, 40.7 µM and more than 200 µM, respectively.
For `O=c1c2ccc(O)cc2oc2cc(O)cc(O)c12`, in that order: more than 200 µM, more than 200 µM and more than 200 µM.
For `O=c1c2ccc(O)cc2oc2cc(OCCCO[N+](=O)[O-])cc(O)c12`, the IC50 was 116 µM in the assay on HepG2, 82.7 µM with MDA-MB-231 and more than 200 µM with MCF7.
The corresponding values for `Cc1ccc2c(=O)c3c(O)cc(OCCCCO[N+](=O)[O-])cc3oc2c1` are 10.6 µM, 62.9 µM and 47.7 µM.
In the case of `O=c1c2ccc(O)cc2oc2cc(OCCO[N+](=O)[O-])cc(O)c12`, the IC50 in the assay with HepG2 was 160 µM; in the assay on MDA-MB-231, 108 µM; with MCF7, more than 200 µM.
As to `Cc1ccc2c(=O)c3c(O)cc(OCCCCCO[N+](=O)[O-])cc3oc2c1`, the IC50 came out at 2.95 µM with HepG2, 30.7 µM in the assay on MDA-MB-231 and 39.5 µM in the assay on MCF7.
For the molecule `O=c1c2cc(Br)ccc2oc2cc(OCCCCO[N+](=O)[O-])cc(O)c12`, the IC50 with HepG2 was determined as 10.1 µM; in the assay on MDA-MB-231, 11.2 µM; in the assay with MCF7 it was 42.9 µM.
For `O=c1c2ccccc2oc2cc(OCCCCCCO[N+](=O)[O-])cc(O)c12`, in that order: 3.17 µM, 23.5 µM and 93.1 µM.
Consider `COc1cc2oc3cc(O)cc(O)c3c(=O)c2cc1OC`, for which the IC50 in the assay on HepG2 is 123 µM; in the assay on MDA-MB-231, more than 200 µM; in the assay on MCF7, more than 200 µM.
For `Cc1ccc2c(=O)c3c(O)cc(OCCCCCCCO[N+](=O)[O-])cc3oc2c1`, the IC50 in the assay on HepG2 is 8.76 µM; with MDA-MB-231 it was 55.9 µM; with MCF7 it was 42.7 µM.
For `COc1cc2oc3cc(OCCCO[N+](=O)[O-])cc(O)c3c(=O)c2cc1OC`, in that order: 53.6 µM, 112 µM and more than 200 µM.
The corresponding values for `COc1cccc2oc3cc(OCCCCCCCO[N+](=O)[O-])cc(O)c3c(=O)c12` are 5.26 µM, 4.29 µM and 53.5 µM.
For `O=c1c2cc(Cl)ccc2oc2cc(OCCCO[N+](=O)[O-])cc(O)c12`, in that order: 17.4 µM, 27.8 µM and 53.4 µM.
On to `O=c1c2ccc(O)cc2oc2cc(OCCCCO[N+](=O)[O-])cc(O)c12`, for which the results for the IC50 in the assay on HepG2, in the assay with MDA-MB-231 and with MCF7 were 96 µM, 66.7 µM and more than 200 µM, respectively.
For `O=c1c2cc(Cl)ccc2oc2cc(OCCCCCO[N+](=O)[O-])cc(O)c12`, in that order: 5.32 µM, 7.79 µM and 25.1 µM.
For `O=c1c2cc(O)ccc2oc2cc(OCCCCO[N+](=O)[O-])cc(O)c12`, in that order: 22.3 µM, 92.6 µM and 143 µM.
The corresponding values for `O=[N+]([O-])OCCCCCCO` are 52.6 µM, 90.4 µM and 89.7 µM.
For `Cc1ccc2c(=O)c3c(O)cc(OCCCO[N+](=O)[O-])cc3oc2c1`, the IC50 is 12.8 µM with HepG2, 78.4 µM in the assay with MDA-MB-231 and 62.8 µM with MCF7.
For `O=c1c2cc(Br)ccc2oc2cc(OCCCCCO[N+](=O)[O-])cc(O)c12`, in that order: 2.65 µM, 11.1 µM and 73.2 µM.
For `O=c1c2cc(Br)ccc2oc2cc(OCCCCCCO[N+](=O)[O-])cc(O)c12`, in that order: 1.21 µM, 15 µM and 43.5 µM.
For `O=c1c2cc(O)ccc2oc2cc(OCCCCCCCO[N+](=O)[O-])cc(O)c12`, in that order: 15.2 µM, 74.3 µM and 112 µM.
Turning to `O=c1c2ccc(O)cc2oc2cc(OCCCCCCO[N+](=O)[O-])cc(O)c12`, the IC50 with HepG2 was 26.4 µM; in the assay with MDA-MB-231, 10.6 µM; in the assay on MCF7, more than 200 µM.
For `COc1ccc2oc3cc(OCCCO[N+](=O)[O-])cc(O)c3c(=O)c2c1`, the IC50 amounted to 63.5 µM with HepG2, 35.6 µM in the assay on MDA-MB-231 and 98.2 µM in the assay with MCF7.
For `COc1cccc2oc3cc(O)cc(O)c3c(=O)c12`, in that order: 32.5 µM, 66 µM and more than 200 µM.
The corresponding values for `O=[N+]([O-])OCCCCO` are 90.8 µM, 157 µM and more than 200 µM.
The corresponding values for `O=c1c2cc(Cl)ccc2oc2cc(OCCO[N+](=O)[O-])cc(O)c12` are 43.1 µM, 33.3 µM and 74.3 µM.
In the case of `O=c1c2ccc(O)cc2oc2cc(OCCCCCCCO[N+](=O)[O-])cc(O)c12`, the IC50 is 76.2 µM in the assay with HepG2, 51.5 µM with MDA-MB-231 and more than 200 µM in the assay with MCF7.
